# Assay results reported in paper PMC9144480 (Pharmaceuticals, 2022).
# Read-outs that look alike come from different tables or passages of the source.
# Tests used:
# [1] = test system: pseudovirus bearing SARS-CoV-2 S protein, delta (B.1.617.2) variant; test: microbe, parasite or virus in culture; assay type: cell-based; conditions: HEK-293T, read-out: IC50, inhibition of cell entry of pseudovirus (delta var.)
# [2] = test system: SARS-CoV-2 spike protein pseudotyped VSV-ΔG; test: microbe, parasite or virus in culture; assay type: cell-based
# [3] = Severe acute respiratory syndrome coronavirus 2, Vero C1008, read-out: IC50, inhibition of VSV-ΔG pseudovirus entry
Structure (SMILES),IC50 [1] [µM],"IC50 [2, 3] [µM]","IC50 ([2]; read-out: IC50, inhibition of VSV-ΔG pseudovirus entry) [µM]"
"CCN(CCO)CCCC(C)Nc1ccnc2cc(Cl)ccc12 (stereo not shown) [HCQ, hydroxychloroquine]",75.1,,
"CN(C)c1ccc2nc3ccc(=[N+](C)C)cc-3sc2c1 [MeBlu, methylene blue]",4.7,2.5,2.46
"Nc1c(/N=N/c2ccc([N+](=O)[O-])cc2)c(S(=O)(=O)O)cc2cc(S(=O)(=O)O)c(/N=N/c3ccccc3)c(O)c12 [NBlBk, naphthol blue black]",388,,
"O=S(=O)(O)c1ccc(N=Nc2c(O)ccc3cc(S(=O)(=O)O)ccc23)cc1 [SY(FD&C#6), sunset yellow FCF]",> 500,> 250,
